One may read the IC50 as the midpoint of a concentration-inhibition curve.

The structures appear in SMILES notation. Counter-ions that a name gives are not always drawn. Bounds are passed on as bounds.

T1 sequence (P50579 whole entry): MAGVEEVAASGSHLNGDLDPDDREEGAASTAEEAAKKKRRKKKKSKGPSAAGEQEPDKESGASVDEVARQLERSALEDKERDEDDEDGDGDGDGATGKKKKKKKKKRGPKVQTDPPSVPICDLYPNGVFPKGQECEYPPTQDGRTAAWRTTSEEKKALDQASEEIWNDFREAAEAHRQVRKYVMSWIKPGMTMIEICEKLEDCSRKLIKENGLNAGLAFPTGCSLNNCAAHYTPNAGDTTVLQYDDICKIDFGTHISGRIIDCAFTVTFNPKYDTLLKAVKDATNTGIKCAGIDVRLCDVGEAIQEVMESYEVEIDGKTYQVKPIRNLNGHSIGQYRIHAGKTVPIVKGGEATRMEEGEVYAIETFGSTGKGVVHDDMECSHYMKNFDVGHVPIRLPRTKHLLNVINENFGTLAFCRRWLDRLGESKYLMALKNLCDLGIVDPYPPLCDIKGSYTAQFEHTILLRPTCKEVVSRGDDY

The assay addresses T1, recombinant human MetAP2 (Homo sapiens, UniProt P50579).
T1 construct: Flag; made in house; host or cells: Sf9 insect cells
Put plainly: Inhibition of recombinant human MetAP2 activity (Amplex red fluorescence assay). It is filed as biochemical. The following applies: manganese Flag-MetAP2, 0.75 mM Methionine-Alanine-Serine substrate, 30 minutes at 25° C., pH 7.5, 1% DMSO. Here is the method:
Compounds are tested for their capacity to inhibit recombinant human MetAP2 activity using the following assay.
Human recombinant Flag-MetAP2 expressed in Sf9 cells followed by affinity purification and EDTA treatment to remove endogenous active site cation is dialysed against MnCl2 to produce the manganese enzyme used in the assay. The assay is carried out for 30 minutes at 25° C. in 50 mM HEPES buffer containing 100 mM NaCl, pH 7.5 the presence of 0.75 mM Methionine-Alanine-Serine (MAS) substrate and 50 μg/ml amino acid oxidase using a dilution of purified MetAP2 giving approximately 50,000 RFU control activity. Cleavage of the substrate by MetAP2 and oxidation of free methionine by amino acid oxidase is detected and quantified using fluorescence generated by Amplex red (10-acetyl-3,7-dihydroxyphenoxazine) in combination with horseradish peroxidase which detects H2O2 released during the oxidation step. The fluorescent signal is detected using a multiwell fluorimeter. Compounds are diluted in DMSO prior to addition to assay buffer, the final DMSO concentration in the assay being 1%.
The IC50 is defined as the concentration at which a given compound achieves 50% inhibition of control. IC50 values are calculated using the XLfit software package (version 2.0.5).
Regarding `COc1ccccc1S(=O)(=O)Cc1ccc(-c2ccoc2)c(OCCN)c1C(=O)O` [2-(2-Aminoethoxy)-3-(furan-3-yl)-6-(2-methoxybenzenesulphonyl-methyl)benzoic acid hydrochloride], the IC50 was 200 to 2000 nM.

On to `CCc1ccc(CS(=O)(=O)c2ccccc2)c(C(=O)O)c1OCCN` [2-(2-Aminoethoxy)-3-ethyl-6-benzenesulphonylmethylbenzoic acid hydrochloride], for which the IC50 was less than 200 nM.

Turning to `NCCOc1c(-c2ccoc2)ccc(CS(=O)(=O)c2cccc(Cl)c2)c1C(=O)O` [2-(2-Aminoethoxy)-6-(3-chlorobenzenesulphonylmethyl)-3-(furan-3-yl)benzoic acid hydrochloride], the IC50 is less than 200 nM.

`NCCOc1c(-c2ccoc2)ccc(CS(=O)(=O)c2ccc(F)cc2)c1C(=O)O` [2-(2-Aminoethoxy)-6-(4-fluorobenzenesulphonylmethyl)-3-(furan-3-yl)benzoic acid hydrochloride]: the 50% inhibitory concentration (IC50) is less than 200 nM.

In the case of `NCCOc1c(-c2ccoc2)ccc(CS(=O)(=O)c2ccccc2)c1C(=O)O` [2-(2-Aminoethoxy)-6-(benzenesulphonylmethyl)-3-(furan-3-yl)benzoic acid hydrochloride], the IC50 was less than 200 nM.

For `NCCNc1c(-c2ccoc2)ccc(CS(=O)(=O)c2ccccc2)c1C(=O)O` [2-(2-Aminoethylamino)-6-benzenesulphonylmethyl-3-(furan-3-yl)-benzoic acid hydrochloride], the IC50 was more than 2000 nM.

Consider `CC(N)COc1c(-c2ccoc2)ccc(CS(=O)(=O)c2ccccc2)c1C(=O)O` (stereo not drawn) [2-(2-Aminopropoxy)-6-(benzenesulphonylmethyl)-3-(furan-3-yl)-benzoic acid hydrochloride], for which the IC50 is more than 2000 nM.

In the case of `NCCCOc1c(-c2ccoc2)ccc(CS(=O)(=O)c2ccccc2)c1C(=O)O` [2-(3-Aminopropoxy)-6-(benzenesulphonylmethyl)-3-(furan-3-yl)benzoic acid hydrochloride], the IC50 lay in the range of 200 to 2000 nM.

As for `NCCCc1c(-c2ccoc2)ccc(CS(=O)(=O)c2ccccc2)c1C(=O)O` [2-(3-Aminopropyl)-6-(benzenesulphonylmethyl)-3-(furan-3-yl)-benzoic acid hydrochloride], the IC50 was more than 2000 nM.

As to `O=C(O)c1c(CS(=O)(=O)c2ccccc2)ccc(-c2ccoc2)c1OC1CNC1` [2-(Azetidin-3-yloxy)-6-(benzenesulphonylmethyl)-3-(furan-3-yl)-benzoic acid hydrochloride], the IC50 is more than 2000 nM.

Regarding `Cn1nccc1-c1ccc(CS(=O)(=O)c2ccccc2)c(C(=O)O)c1` [2-(Benzenesulphonylmethyl)-5-(2-methyl-2H-pyrazol-3-yl)benzoic acid], the IC50 is more than 2000 nM.

`Cc1occc1-c1ccc(CS(=O)(=O)c2ccccc2)c(C(=O)O)c1` [2-(Benzenesulphonylmethyl)-5-(2-methylfuran-3-yl)benzoic acid]: the IC50 was 200 to 2000 nM.

Consider `O=C(O)c1cc(-c2ccoc2)ccc1CS(=O)(=O)c1ccccc1` [2-(Benzenesulphonylmethyl)-5-(furan-3-yl)benzoic acid], for which the IC50 lay within 200 to 2000 nM.

Regarding `O=C(O)c1cc(-c2cnco2)ccc1CS(=O)(=O)c1ccccc1` [2-(Benzenesulphonylmethyl)-5-(oxazol-5-yl)benzoic acid], the IC50 was more than 2000 nM.

`CCc1ccc(CS(=O)(=O)c2ccccc2)c(C(=O)O)c1` [2-(Benzenesulphonylmethyl)-5-ethylbenzoic acid]: the IC50 lay within 200 to 2000 nM.

On to `COc1cccc(CS(=O)(=O)c2ccccc2)c1C(=O)O` [2-(Benzenesulphonylmethyl)-6-methoxybenzoic acid], for which the IC50 was more than 2000 nM.

Regarding `COc1cccc2ccc(CS(=O)(=O)c3ccccc3)c(C(=O)O)c12` [2-(Benzenesulphonylmethyl)-8-methoxynaphthalene-1-carboxylic acid], the IC50 is more than 2000 nM.

For `O=C(O)c1c(CS(=O)(=O)c2ccccc2)ccc2ccccc12` [2-(Benzenesulphonylmethyl)naphthalene-1-carboxylic acid], the half-inhibitory concentration (IC50) lay within 200 to 2000 nM.

For `COc1cccc(CS(=O)(=O)c2ccccc2C)c1C(=O)O` [2-Methoxy-6-(2-methylbenzenesulphonylmethyl)benzoic acid], the IC50 was more than 2000 nM.

For `COc1ccccc1S(=O)(=O)Cc1ccc(-c2ccoc2)c(OC)c1C(=O)O` [3-(Furan-3-yl)-2-methoxy-6-(2-methoxybenzenesulphonylmethyl)-benzoic acid], the IC50 is 200 to 2000 nM.

As for `COc1c(-c2ccoc2)ccc(CS(=O)(=O)c2ccccc2C)c1C(=O)O` [3-(Furan-3-yl)-2-methoxy-6-(2-methyl-benzenesulphonylmethyl)benzoic acid], the IC50 fell in the range of 200 to 2000 nM.

In the case of `COc1c(-c2ccoc2)ccc(CS(=O)(=O)N2CCCCC2)c1C(=O)O` [3-(Furan-3-yl)-2-methoxy-6-(piperidine-1-ylsulphonylmethyl)benzoic acid], the IC50 is less than 200 nM.

In the case of `COc1c(-c2ccoc2)ccc(CS(=O)(=O)c2ccccn2)c1C(=O)O` [3-(Furan-3-yl)-2-methoxy-6-(pyridin-2-ylsulphonylmethyl)benzoic acid], the IC50 was less than 200 nM.

Take `COc1c(-c2ccoc2)ccc(CS(=O)(=O)c2cccnc2)c1C(=O)O` [3-(Furan-3-yl)-2-methoxy-6-(pyridin-3-ylsulphonylmethyl)benzoic acid]: the IC50 fell in the range of 200 to 2000 nM.

Consider `COc1c(-c2ccoc2)ccc(CS(=O)(=O)N2CCCC2)c1C(=O)O` [3-(Furan-3-yl)-2-methoxy-6-(pyrrolidin-1-ylsulphonylmethyl)-benzoic acid], for which the IC50 lay within 200 to 2000 nM.

For `CN=S(=O)(Cc1ccc(-c2ccoc2)c(OC)c1C(=O)O)c1ccccc1` (stereo not drawn) [3-(Furan-3-yl)-2-methoxy-6-[(N-methyl-S-phenylsulphonimidoyl)methyl]benzoic acid], the IC50 fell in the range of 200 to 2000 nM.

For `COc1c(-c2ccoc2)ccc(CS(=N)(=O)c2ccccc2)c1C(=O)O` (stereo not drawn) [3-(Furan-3-yl)-2-methoxy-6-[(S-phenylsulphonimidoyl)methyl]benzoic acid], the IC50 was 200 to 2000 nM.

`COc1c(-c2ccoc2)ccc(CS(=O)(=O)c2ccccc2O)c1C(=O)O` [3-(Furan-3-yl)-6-(2-hydroxybenzenesulphonylmethyl)-2-methoxybenzoic acid]: the half-maximal inhibitory concentration (IC50) is less than 200 nM.

For `COc1c(-c2ccoc2)ccc(CS(=O)(=O)c2cccc(O)c2)c1C(=O)O` [3-(Furan-3-yl)-6-(3-hydroxybenzenesulphonylmethyl)-2-methoxy-benzoic acid], the IC50 was in the range of 200 to 2000 nM.

As to `COc1c(-c2ccoc2)ccc(CS(=O)(=O)N2CCC(O)C2)c1C(=O)O` (stereo not drawn) [3-(Furan-3-yl)-6-(3-hydroxypyrrolidine-1-ylsulphonylmethyl)-2-methoxybenzoic acid], the IC50 lay in the range of 200 to 2000 nM.

As for `COc1cccc(S(=O)(=O)Cc2ccc(-c3ccoc3)c(OC)c2C(=O)O)c1` [3-(Furan-3-yl)-6-(3-methoxybenzenesulphonylmethyl)-2-methoxybenzoic acid], the IC50 was more than 2000 nM.

Take `CCc1ccc(CS(=O)(=O)c2ccccc2C)c(C(=O)O)c1OC` [3-Ethyl-2-methoxy-6-(2-methylbenzenesulphonylmethyl)benzoic acid]: the IC50 fell in the range of 200 to 2000 nM.

As to `CCc1ccc(CS(=O)(=O)c2ccc(F)cc2)c(C(=O)O)c1OC` [3-Ethyl-6-(4-fluorobenzenesulphonylmethyl)-2-methoxybenzoic acid], the IC50 lay in the range of 200 to 2000 nM.

As for `CCc1ccc(C(C)S(=O)(=O)c2ccccc2)c(C(=O)O)c1OC` (stereo not drawn) [6-(1-Benzenesulphonylethyl)-3-ethyl-2-methoxy-benzoic acid], the IC50 lay in the range of 200 to 2000 nM.

As to `COc1c(-c2ccoc2)ccc(CS(=O)(=O)c2ccccc2Cl)c1C(=O)O` [6-(2-Chlorobenzenesulphonylmethyl)-3-(furan-3-yl)-2-methoxybenzoic acid], the IC50 lay within 200 to 2000 nM.

Turning to `COc1c(-c2ccoc2)ccc(CS(=O)(=O)c2ccccc2F)c1C(=O)O` [6-(2-Fluorobenzenesulphonylmethyl)-3-(furan-3-yl)-2-methoxybenzoic acid], the IC50 lay in the range of 200 to 2000 nM.

`COc1c(-c2ccoc2)ccc(CS(=O)(=O)c2cccc(Cl)c2)c1C(=O)O` [6-(3-Chlorobenzenesulphonylmethyl)-3-(furan-3-yl)-2-methoxybenzoic acid]: the IC50 was less than 200 nM.

Consider `COc1c(-c2ccoc2)ccc(CS(=O)(=O)c2cccc(F)c2)c1C(=O)O` [6-(3-Fluorobenzenesulphonylmethyl)-3-(furan-3-yl)-2-methoxybenzoic acid], for which the IC50 was less than 200 nM.

As for `COc1c(-c2ccoc2)ccc(CS(=O)(=O)N2CCC(F)(F)CC2)c1C(=O)O` [6-(4,4-Difluoropiperidine-1-ylsulphonylmethyl)-3-(furan-3-yl)-2-methoxybenzoic acid], the IC50 was less than 200 nM.

For `CCc1ccc(CS(=O)(=O)c2ccc(Cl)cc2)c(C(=O)O)c1OC` [6-(4-Chlorobenzenesulphonylmethyl)-3-ethyl-2-methoxy-benzoic acid], the IC50 is more than 2000 nM.

For `COc1c(-c2ccoc2)ccc(CS(=O)(=O)c2ccc(F)cc2)c1C(=O)O` [6-(4-Fluorobenzenesulphonylmethyl)-3-(furan-3-yl)-2-methoxybenzoic acid], the IC50 is less than 200 nM.

`COc1c(-c2ccoc2)ccc(CS(=O)(=O)N2C3CCC2CC3)c1C(=O)O` [6-(7-Azabicyclo[2.2.1]heptane-7-ylsulphonylmethyl)-3-(furan-3-yl)-2-methoxybenzoic acid]: the IC50 fell in the range of 200 to 2000 nM.
